From patent publication US4943562A, “Tetra- and pentapeptides containing the lysyl-arginyl-aspartyl sequence and their applications as medicines, particularly anti-thrombotic medicines” (Institut des Vaisseaux et du Sang, priority 1987, dated 1990)
Peptide text beside a SMILES is read from it.

Columns and labels:
[1] = water-solubility of the peptide; assay type: physicochemical
Excerpt: This peptide is hydrophilic and its water-solubility is very good.

intravascular thrombus [2] = assay: experimental thrombosis: intravascular thrombus induced by a specific lesion of the arterial wall, rat; assay type: in vivo; conditions: direct intravenous injection
Protocol: Experimental work on thrombosis carried out on two different animal species (rat and guineapig) have shown that the peptides according to the invention, in particular the peptides of the general formula […] (II), viz. particularly peptide […] (peptide 1) and peptide […] The type of thrombus which is thus induced takes into account the participation of the blood platelets against which the peptide exerts its activity but also the reactivity of the injured vascular wall. […] In the same experimental thrombosis system, when a peptide according to the invention is used, particularly a peptide of the formula […]

intravascular thrombus [3] = assay: experimental thrombosis: intravascular thrombus induced by a specific lesion of the arterial wall, guineapig; assay type: in vivo; conditions: direct intravenous injection
Protocol: Experimental work on thrombosis carried out on two different animal species (rat and guineapig) have shown that the peptides according to the invention, in particular the peptides of the general formula […] (II), viz. particularly peptide […] (peptide 1) and peptide […] […] The type of thrombus which is thus induced takes into account the participation of the blood platelets against which the peptide exerts its activity but also the reactivity of the injured vascular wall.

water-solubility [1]	Compound	anti-thrombotic activity (intravascular thrombus [2])	anti-thrombotic activity (intravascular thrombus [3])
very good	N=C(N)NCCC[C@H](NC(=O)[C@@H](N)CCCCN)C(=O)N[C@@H](CC(=O)O)C(=O)N[C@@H](CO)C(=O)O [peptide 1, Lys-Arg-Asp-Ser] (H-KRDS-OH)		
	N=C(N)NCCC[C@H](NC(=O)[C@H](CC(=O)O)NC(=O)[C@H](CCCNC(=N)N)NC(=O)[C@@H](N)CCCCN)C(=O)O [peptide 6, Lys-Arg-Asp-Arg] (H-KRDR-OH)	exert an anti-thrombotic activity	exert an anti-thrombotic activity
